Values quoted from earlier work in publication PMC10254530, “Design and Synthesis of Brefeldin A-Isothiocyanate Derivatives with Selectivity and Their Potential for Cervical Cancer Therapy” (Molecules, 2023).

System: human T lymphoblastoid cell line Jurkat
Design: method as in PMID 22200402
Settings: 0.5 μM; cited from earlier work

In the case of `O=C1c2ccc3c4c(ccc(c24)C(=O)N1CCCN=C=S)C(=O)N(CCCN=C=S)C3=O` [derivative A], the “effect on apoptosis in Jurkat cells” value is given as “induced apoptosis by activating caspase-8”.
